ChEMBL document CHEMBL1136644, “Alkylation of manganese(II) tetraphenylporphyrin by antimalarial fluorinated artemisinin derivatives” (Bioorg Med Chem Lett, 2003)
pIC50: −log10 of the molar value.

How the values were obtained:
[1] = Half-life in plasma; format: ADME, cell-free
[2] = system: Plasmodium falciparum; assay: In vitro inhibitory activity against the chloroquine-resistant Plasmodium falciparum W2 Indochina; format: functional, organism-based
[3] = Partition coefficient (logP); format: physicochemical; conditions: octanol/water

logP [3] | SMILES | half-life [1] | pIC50 [2]
– | C[C@H]1[C@@H](C(=O)OCCC(=O)[O-])O[C@@H]2O[C@]3(C)CC[C@H]4[C@H](C)CC[C@@H]1C24OO3.[Na+] | < 2 h | –
– | C[C@@H]1CC[C@H]2[C@@H](C)[C@](O[Si](C)(C)C)(C(F)(F)F)O[C@@H]3O[C@]4(C)CC[C@@H]1C32OO4 | – | 7.14
3.36 | CO[C@H]1O[C@@H]2OC3(C)CC[C@H]4[C@H](C)CC[C@@H]([C@H]1C)[C@@]24OO3 (single isomer, unassigned) [ARTEMETHER] | < 2 h | –
– | C[C@@H]1CC[C@H]2[C@@H](C)C(=O)O[C@@H]3OC4(C)CC[C@@H]1[C@]32OO4 (single isomer, unassigned) [ARTEMISININ] | < 2 h | –
